Experimental data reported in patent US20240100074A1, “Clinical Dosing Schedule of Inositol Phosphate Oligo(Ethylene Glycol) Compounds” (VIFOR (INTERNATIONAL) AG, priority 2021, published 2024).
“Also recorded” adds a separate entry of the source.

Experiments:
[1] = test system: Abcc6−/− mice (mouse model of PXE); assay: Prevention study: histologic (von Kossa) evaluation of vibrissae calcification in muzzle skin; format: in vivo; details: for calcification in the dermal sheath of vibrissae in muzzle skin (von Kossa) / inhibition of ectopic calcification: osmotic pump
Procedure: (§1) Abcc6^−/− knock-out mice (Abcc6^−/−) on C57BL/6J background were generated as described previously (J. F. Klement et al., Mol Cell Biol 2005, 25, 8299). C57BL/6J mice from The Jackson Laboratory (Bar Harbor, ME) were used as wild-type controls (WT). In prevention study, 6-week-old Abcc6^−/− mice were administered with (I a) by periodic subcutaneous injections or continuous administration via subcutaneous ALZET osmotic pump model 2006 (DURECT Corp, Cupertino, CA) for duration of 6 weeks. In reversal study, 12-week-old Abcc6^−/− mice were administered (I a) at 4 mg/kg/day via osmotic pumps for 12 weeks. All mice were maintained on a standard diet and sacrificed at 12 weeks of age, 6 weeks after initiation of treatment (prevention study), or at 24 weeks of age, 12 weeks after initiation of treatment (reversal study). All protocols were approved by the Institutional Animal Care and Use Committee of Thomas Jefferson University.
(§2) Muzzle skin biopsies (left side) from euthanized mice were collected and fixed in 10% phosphate-buffered formalin and embedded in paraffin. Paraffin sections (6 μm) were stained with Hematoxylin and Eosin or von Kossa using standard procedures. To quantify the mineral deposition, muzzle skin biopsies (right side) were harvested and decalcified with 1.0 M HCl for 48 hours at room temperature. Solubilized calcium was then determined by a colorimetric assay (J. Huang et al., J Invest Dermatol 2019, 139, 1254; Q. Li, J. Huang et al., J Invest Dermatol 2019, 139, 360). The values were normalized to tissue weight. Whole blood was collected by retro-orbital bleeding or cardiac puncture. For subcutaneously injected mice, whole blood was collected 30 minutes after injection of (I a). Whole blood was collected at 2 days, 3 weeks, and 6 weeks after treatment initiation in mice receiving (I a). The concentrations of (I a) in heparin plasma were analyzed on an ultra-fast liquid chromatography, as described previously (A. E. Schantl et al., Nat Commun 2020, 11, 721). The data was analyzed using Kruskal-Wallis nonparametric test.
The Abcc6^−/− mice were administered (I a) by subcutaneous implantation of osmotic pumps at doses of 0.16, 0.8, 4, 20, and 100 mg/kg/day. The untreated wild-type and Abcc6^−/− mice served as negative and positive controls of ectopic calcification. Treatment was initiated at 6 weeks of age, a time point at the earliest stages of ectopic calcification in the Abcc6^−/− mice. The extent of ectopic calcification after 6 weeks of treatment was analyzed by two independent assays measuring calcification in the dermal sheath of vibrissae in muzzle skin, an early and reliable biomarker in this mouse model of PXE. One piece of muzzle skin was processed for semi-quantitative histological evaluation. […] The therapeutic effects of (I a) were substantiated by the calcium content in another muzzle skin biopsy measured using a quantitative chemical assay (FIG. 2A).
The inventors next examined whether periodic, bolus subcutaneous injections of (I a) at the same dose of 4 mg/kg/day, would have similar therapeutic benefits. Six-week-old Abcc6^−/− mice were administered (I a) by subcutaneous injections three times per week corresponding to 4 mg/kg/day. […] Thus, subcutaneous injection of (I a) is effective, albeit less than with continuous delivery at the same dose of 4 mg/kg/day on inhibition of ectopic calcification.
Three additional dose levels of (I a) at weekly subcutaneous injections for a duration of 6 weeks were tested to evaluate the inhibitory effects of (I a) (FIG. 1A). […] The semi-quantitative histologic evaluations of (I a) treatment were consistent with the calcium contents in the muzzle skin measured by a chemical assay (FIG. 2A).

[2] = test system: Abcc6−/− mice (mouse model of PXE); assay: Prevention study: quantitative chemical calcium assay of muzzle skin biopsies; format: in vivo; details: 6 weeks
Procedure: as §1
(§3) Muzzle skin biopsies (left side) from euthanized mice were collected and fixed in 10% phosphate-buffered formalin and embedded in paraffin. […] To quantify the mineral deposition, muzzle skin biopsies (right side) were harvested and decalcified with 1.0 M HCl for 48 hours at room temperature. Solubilized calcium was then determined by a colorimetric assay (J. Huang et al., J Invest Dermatol 2019, 139, 1254; Q. Li, J. Huang et al., J Invest Dermatol 2019, 139, 360). […] The concentrations of (I a) in heparin plasma were analyzed on an ultra-fast liquid chromatography, as described previously (A. E. Schantl et al., Nat Commun 2020, 11, 721). The data was analyzed using Kruskal-Wallis nonparametric test.
The Abcc6^−/− mice were administered (I a) by subcutaneous implantation of osmotic pumps at doses of 0.16, 0.8, 4, 20, and 100 mg/kg/day. […] The extent of ectopic calcification after 6 weeks of treatment was analyzed by two independent assays measuring calcification in the dermal sheath of vibrissae in muzzle skin, an early and reliable biomarker in this mouse model of PXE. One piece of muzzle skin was processed for semi-quantitative histological evaluation. […]

[3] = Plasma concentrations of (I a) in treated Abcc6−/− mice; format: in vivo, mouse
Procedure: as §2
(I a) was undetectable in plasma of untreated Abcc6^−/− mice.
The Tmax of (I a) in plasma after subcutaneous administration in Sprague Dawley rats was reported to be about 30 minutes after injection, the inventors therefore measured (I a) concentrations in plasma 30 minutes after injection in the Abcc6^−/− mice.

[4] = test system: Abcc6−/− mice (mouse model of PXE); assay: Treatment (reversal) study: histopathology and calcium assay of muzzle skin in old mice; format: in vivo; details: 12-week-old mice, osmotic pump 4 mg/kg/day for 12 weeks, analysed at 24 weeks of age
Procedure: as §1, with “All mice were maintained on a standard diet and sacrificed at 12 weeks of age, 6 weeks after initiation of treatment (prevention study), or at 24 weeks of age, 12 weeks after initiation of treatment (reversal study). All protocols were approved by the Institutional Animal Care and Use Committee of Thomas Jefferson University.” left out
as §3, with “test. […]” for “test.”

[5] = Profile of (I a) compared to pyrophosphate and bisphosphonates
[6] = subcutaneous administration, Sprague Dawley rats; cited from earlier work
[7] = test system: cardiovascular calcifications; details: patients on hemodialysis, 1-year treatment; cited from earlier work

## COCCOCCOC1C(OP(=O)(O)O)C(OCCOCCOC)C(OP(=O)(O)O)C(OP(=O)(O)O)C1OP(=O)(O)O (centres unmarked) [(I a), bis-oligoethylene myo-inositol tetrakisphosphate]
[1]; 0.16 mg/kg/day, 6 weeks
  calcification in the dermal sheath of vibrissae in muzzle skin (von Kossa): no effects
[1]; 0.8 mg/kg/day, 6 weeks
  calcification in the dermal sheath of vibrissae in muzzle skin (von Kossa): evident but significantly reduced calcification
[1]; 4 mg/kg/day (and above), 6 weeks, from 6 weeks of age, 4 mg/kg/day
  calcification in the dermal sheath of vibrissae in muzzle skin (von Kossa): very little, if any, calcification; also recorded: little, if any, calcification; also recorded: completely prevented ectopic calcification; also recorded: complete response
[1]; 4 mg/kg/day, 6 weeks
  inhibition of ectopic calcification: ~100%
[1]; 100 mg/kg/day, 6 weeks
  inhibition of ectopic calcification: ~100%
[1]; subcutaneous injections at different doses and frequencies (thrice weekly and once weekly)
  calcification, subcutaneous injections overall: decreased calcification; also recorded: prevented calcification
[1]; subcutaneous injections three times per week corresponding to 4 mg/kg/day, 6 weeks
  calcification in the muzzle skin (histology): significantly reduced calcification
[1]; weekly subcutaneous injection, 0.8 mg/kg/day, 6 weeks
  ectopic calcification in the muzzle skin (histology): significantly reduced ectopic calcification
[1]; weekly subcutaneous injection, 4 mg/kg/day, 6 weeks
  calcification in the muzzle skin (histology): significantly reduced calcification
[2]; continuous osmotic pump administration
  minimum active dose / minimum effective dose: 0.8 mg/kg/day
[2]; osmotic pump, 0.8 mg/kg/day
  inhibition of ectopic calcification by calcium assay: 59%
[2]; subcutaneous injections three times per week corresponding to 4 mg/kg/day
  inhibition of ectopic calcification by calcium assay: 63%
[3]; 2 days, 3 weeks and 6 weeks after implantation of the osmotic pump
  plasma levels over time: remained largely constant; also recorded: largely consistent during treatment
[3]; bolus subcutaneous injection versus pump administered groups
  plasma levels 30 minutes after subcutaneous injection: much higher than that in the pump administered groups
[3]; osmotic pump (prior to sacrifice) or 30 minutes after subcutaneous injection
  plasma concentrations versus dose, all groups: scaled relatively well with the dose administered
[3]; osmotic pump, 0.16 to 100 mg/kg/day
  plasma concentrations versus dose: dose-dependent
[4]
  degree of ectopic calcification in muzzle skin after treatment: prevented further calcification; also recorded: calcification similar to 12-week-old Abcc6^−/− control mice; also recorded: stabilized existing calcification
[4]; listed as INS-3001
  degree of ectopic calcification in muzzle skin after treatment: stabilize existing calcification
[5]
  anti-osteoclastic activity: no anti-osteoclastic activity
  local tolerability: good
  subcutaneous bioavailability: high
[6]
  Tmax in plasma: about 30 minutes

## O=P(O)(O)O[C@H]1[C@H](OP(=O)(O)O)[C@@H](OP(=O)(O)O)[C@H](OP(=O)(O)O)[C@@H](OP(=O)(O)O)[C@H]1OP(=O)(O)O [IP6]
[7]
  progression of cardiovascular calcifications: stop the progression, albeit without regression
